Source: patent publication US10328075B2, “Method of treatment and compounds for use therein” (Baker Heart and Diabetes Institute, priority 2015, dated 2019)
No end group written: not given here.

System: neonatal rat ventricular cardiomyocyte
Assay: Hypoxia-reoxygenation (simulated I-R) injury in neonatal rat cardiomyocytes, LDH and cTnI release
Type: cell-based
Conditions: 1 μM
Protocol: Isolation of primary neonatal rat ventricular cardiomyocyte: All materials used for cardiomyocyte isolation were of tissue culture grade. Cardiomyocyte isolation was performed by serial enzymatic digestions, as previously described (Irvine, J C et al, AJP, 2013). Cardiomyocyte were suspended in sterile DMEM, supplemented with 100 U/mL penicillin, 100 μg/mL streptomycin, and 10% FCS. The myocyte-rich cell suspension was preplated twice (45 min at 37° C.) to reduce fibroblast contamination. Cardiomycte was then plated onto 12-well plates at 0.5×10^6 for lactate dehydrogenase (LDH) assay in the presence of 1% 5-bromo-2′-deoxyuridine (BrdU, to limit proliferation of any remaining fibroblasts).
Simulated ischaemic-reperfusion in neonatal rat cardiomyocytes: The medium for cardiomyocytes was changed to serum-free low glucose DMEM after at least 48 h after isolation. […] Agonists were dissolved in DMEM or Krebs' buffer and were present for the full duration of hypoxia and reoxygenation. At the end of 48 h reoxygenation, culture supernatant aliquots was collected on ice and stored at −80° C. for assessment of cardiomyocyte injury. Samples were thawed on ice, and cell injury assessment determined via the level of LDH released into the supernatant, using the Cyto-Tox-One™ Homogeneous Membrane Integrity Assay as per manufacture's instruction (Promega Inc, Dane Country, Wis., USA). To confirm the extent of cardiomyocyte injury, levels of cTn in the supernatant were also evaluated, using a commercially available high-sensitivity rat cTnI ELISA kit (Life Diagnostic Inc, West Chester, Pa., USA) as per manufacturer's instructions.
Isolation and culture of primary rat cardiomyocytes and mouse cardiac fibroblasts: All materials used for cell isolation were of tissue culture grade. Isolation of primary neonatal rat cardiac cardiomyocytes (NRCM) and adult mouse cardiac fibroblasts (AMCF) was performed by serial enzymatic digestion, as previously described (Irvine et al 2012 & Irvine et al. 3) NRCM were plated onto either 12-well tissue culture plates (for simulated ischemia-reperfusion, via hypoxia-reoxygenation, H-R) or 60 mm tissue culture dishes (for gene expression) at a density of 1.3×10^5 cells/cm^2, in the presence of 1% 5-bromo-2′-deoxyuridine. AMCF (passage #3) were seeded onto 60 mm tissue culture dishes at 9.5×10^4 cells/cm^2 and allowed to grow to 80% confluence prior to study. Following 48 h in serum-free DMEM, NRCM in 12-well tissue plates were subjected to simulated ischemia, induced by replacement of culture media with sterile-filtered Kreb's buffer (118 mM NaCl, 4.8 mM KCl, 1.2 mM KH2PO4, 1.2 mM MgSO4, 25 mM NaHCO3, […], 11.0 mM glucose, 1.75 mM CaCl2) prior to incubation for 6 h at 37° C. under hypoxia (95% N2-5% CO2, using a hypoxia chamber, QNA International, Melbourne, Australia). At the end of hypoxia, Kreb's buffer was replaced with fresh, sterile-filtered Kreb's buffer, in the presence or absence of FPR agonists Cmpd17b, Cmpd43 (both 1 μM or vehicle, and NRCM were subjected to 48 h reoxygenation at 37° C. At the end of 48 h reoxygenation, NRCM supernatant was collected for assessment of cardiomyocyte injury. Cardiomyocyte release of cTnI was determined using a commercially available, high-sensitivity rat cTnI ELISA kit (Life Diagnostic Inc.) as per the manufacturer's instructions. Separate NRVM on 60 mm dishes were incubated for 48 h at 37° C. in serum-free DMEM, in the presence or absence of FPR agonists Cmpd17b, Cmpd43 (both 1 μM) or vehicle. At the end of 48 h, RNA was extracted and real-time PCR performed (as described previously (Huynh et al. 2012)), to determine the relative gene expression of rat Fprs (rFpr1, rFpr2 and rFpr3, expressed as the threshold cycle number Ct subtracted from the maximum cycle number utilized, 40).
Cardiomyocytes injury responses in vitro: Neonatal rat cardiomyocytes and adult mouse cardiofibroblasts were isolated and cultured as described (online Supplement). […]

[1] = present only during reoxygenation
[2] = present for the full duration of 6 h hypoxia and 48 h reoxygenation

Molecule: COc1cccc(Cc2cc(C)nn(C(C)C(=O)Nc3ccc(Br)cc3)c2=O)c1 (stereo not shown) [BIDI-001, N-(4-bromophenyl)-2-[5-(3-methoxybenzyl)-3-methyl-6-oxo-6H-pyridazin-1-yl]-propionamide]
- Cardiomyocyte cTnI release after hypoxia-reoxygenation [1]: significantly reduced
- Cardiomyocyte cTnI release after hypoxia-reoxygenation (present only during reoxygenation, listed as Cmpd17b): rescued

Molecule: CC(C)C1C(NC(=O)Nc2ccc(Cl)cc2)C(=O)N(c2ccccc2)N1C (stereo not shown) [BIDI-002]
- Cardiomyocyte cTnI release after hypoxia-reoxygenation [1]: significantly reduced

Molecule: Ac2-26: Annexin-A1 N-terminal peptide, peptide ANX-A1 mimetic (Ac-AMVSEFLKQAWFIENEEQEYVQTVK; UniProt P04083 2-26, looked up, fragment)
- Cardiomyocyte LDH release after hypoxia-reoxygenation [2]: significantly reduced
- Cardiomyocyte cTnI release after hypoxia-reoxygenation [2]: significantly reduced
- Cardiomyocyte LDH release after hypoxia-reoxygenation [1]: non-significant trend
- Cardiomyocyte cTnI release after hypoxia-reoxygenation [1]: significantly attenuated
